Laboratory results from patent US20130029991A1, “New Phenylsulfamoyl Benzamide Derivatives as Bradykinin Antagonists” (priority 2006, published 2013).
Structures can show the parent of a compound that is named as a salt. Where two headings read alike, the source gives them in different places.

How the values were obtained:
[1] = molecular target: T1, recombinant human B1 receptors (Homo sapiens, UniProt P46663); assay: Functional assay: antagonist potency by cytosolic calcium measurement (fluo-4, plate reader fluorimeter) in CHO-B1 cells; format: cell-based
T1 construct: host or cells: CHO (CHO-B1)
T1 sequence (P46663 1-353): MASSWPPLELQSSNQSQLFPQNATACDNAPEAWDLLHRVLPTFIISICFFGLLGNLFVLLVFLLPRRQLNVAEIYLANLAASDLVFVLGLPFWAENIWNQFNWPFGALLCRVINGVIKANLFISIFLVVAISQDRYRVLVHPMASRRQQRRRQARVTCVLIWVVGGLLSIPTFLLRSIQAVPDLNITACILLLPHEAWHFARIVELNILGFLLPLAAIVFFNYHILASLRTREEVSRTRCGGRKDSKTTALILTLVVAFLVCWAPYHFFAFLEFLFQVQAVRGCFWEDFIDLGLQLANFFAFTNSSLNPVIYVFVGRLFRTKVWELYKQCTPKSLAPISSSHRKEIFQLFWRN
Protocol: Assessment of Antagonist Potency at B1 and B2 Receptors In Vitro by Measurement of Cytosolic Calcium Ion Concentration with a Plate Reader Fluorimeter in Cells Expressing Recombinant Human B1 or B2 Receptors
Chinese hamster ovary (CHO) cells stably expressing recombinant human B1 (CHO-B1, Euroscreen) or B2 (CHO-B2, Perkin-Elmer) receptors were cultured in Dulbecco's Modified Eagle's Medium (DMEM) containing 10% Fetal Calf Serum (FCS), 100 U/ml penicillin, 0.1 mg/ml streptomycin, 0.25 μg/ml amphotericin B, 1% Minimum Essential Medium Eagle (MEM), non essential amino acid solution, […], 1% pyruvate (for the B2 cell line). Cells were kept at 37° C. in a humidified incubator in an atmosphere of 5% CO2/95% air and were passaged 1:4 three times a week. Cells were plated at 1.5-2.5×10^4 cell/well on standard 96-well microplates, measurements of cytosolic calcium ion concentration ([Ca^2+]i) were carried out 1-2 days after cell plating.
Measurements of [Ca^2+]i were carried out on CHO-B1 and CHO-B2 cells stably expressing human B1 and B2 receptors, respectively. Cells were grown in standard 96-well microplates and before the measurement were loaded with a fluorescent Ca^2+-sensitive dye, fluo-4/AM (2 μM): after removing the culture medium the dye was added to the cells (dissolved in assay buffer: 145 mM NaCl, 5 mM KCl, 2 mM MgCl2, 2 mM CaCl2, 10 mM HEPES, 20 mM D-glucose, 2 mM probenecid, 100 μl/well) and cells were incubated at 37° C. in a humidified incubator in an atmosphere of 5% CO2/95% air for 40-120 min. To stop dye loading cells were washed twice with assay buffer. After washing, various concentrations of the test compounds (diluted in extracellular medium from a DMSO stock solution, final DMSO concentration was <0.1%) or buffer were added to each well depending on the experimental setup. After incubation at 37° C. for 20-25 min. baseline and agonist-evoked changes of [Ca^2+]i were measured column by column with a plate reader fluorimeter (Fluoroskan Ascent, Labsystems). Excitation and detection of emission was carried out from the bottom of the plate. Filters used for Fluo-4: excitation filter—485 nm, emission filter—538 nm. The whole measurement process was performed at 37° C. and was controlled by custom software Inhibitory potency of the test compounds was assessed by measuring the reduction in the agonist-evoked [Ca^2+]i-elevation in the presence of different concentrations of the compounds. The agonists were LysDABK for CHO-B1, and bradykinin for CHO-B2 cells. Agonists were applied at an EC80 concentration, the EC80-values were derived from daily determined dose-response curves. Fluorescence data were expressed as ΔF/F (fluorescence change normalized to baseline). All treatments on a single plate were measured in multiple wells. Data from all wells with the same treatment were averaged and the average values were used for analysis. Inhibitory potency of a compound at a single concentration point was expressed as percent inhibition of the control agonist response. Sigmoidal concentration-inhibition curves were fitted to the data (derived from at least three independent experiments) and IC50-values were determined as the concentration that produces half of the maximal inhibition caused by the compound.

[2] = molecular target: T2, human recombinant bradykinin B1 receptor (Homo sapiens, UniProt P46663); assay: Human recombinant bradykinin B1 receptor binding
T2 construct: host or cells: CHO cells
T2 sequence (P46663 1-353): T1 sequence (P46663 1-353)
Protocol: 1. Human Recombinant Bradykinin B1 Receptor Binding
Binding assays were carried out on human recombinant bradykinin) receptors (expressed in CHO cells) according to the Euroscreen Technical Data Sheet (Cat.No.:ES-091). 20 μg protein/tube was incubated with [3,4-prolyl-3,4-^3H(N)]-[Des-Arg^10] Kallidin as radioligand. Non specific binding was determined in the presence of 10 μM Lys-des-Arg^9-Bradykinin. The final incubation volume was 250 μl. Samples were incubated for 15 min. at 25° C. then were rapidly vacuum filtered through GF/B filters presoaked for at least 1 h in 0.5% PEI. Radioactivity was determined by liquid scintillation spectroscopy.

[3] = CHO-B1 cells, inhibition of LysDABK (EC80)-evoked [Ca2+]i elevation, read-out: B1 func.
[4] = CHO cell membranes, [3H]-[Des-Arg10] Kallidin radioligand, read-out: B1 binding

IC50 [1, 3]	Ki [2, 4]	Compound	IC50 ([1]; reference compounds, functional test, read-out: IC50)	Ki ([2]; reference compounds, binding test, read-out: Ki)
< 20 nM	< 20 nM	O=C(CNC(=O)c1ccc(S(=O)(=O)Nc2ccccc2Oc2ccccc2)cc1)NCCCN1CCC(N2CCCCC2)CC1 [Example 48, N-[(3-[1,4′]Bipiperidinyl-r-yl-propylcarbamoyl)-methyl]-4-(2-phenoxy-phenylsulfamoyl)-benzamide]		
< 20 nM	< 20 nM	O=C(CNC(=O)c1ccc(S(=O)(=O)Nc2ccccc2Oc2ccc(Cl)cc2Cl)cc1)NCCCCN1CCCCC1 [Example 63, 4-[2-(2,4-Dichloro-phenoxy)-phenylsulfamoyl]-N-[(4-piperidin-1-yl-butylcarbamoyl)-methyl]-benzamide]		
	< 20 nM	N#CCc1ccc(NC(=O)CNC(=O)c2ccc(S(=O)(=O)Nc3ccccc3Oc3ccccc3)cc2)cc1 [Example 73, N-[(4-Cyanomethyl-phenylcarbamoyl)-methyl]-4-(2-phenoxy-phenylsulfamoyl)-benzamide]		
< 20 nM	< 20 nM	O=C(CNC(=O)c1ccc(S(=O)(=O)Nc2ccccc2Oc2ccc(Cl)cc2Cl)cc1)NCCCN1CCCCC1 [Example 2, 4-[2-(2,4-Dichloro-phenoxy)-phenylsulfamoyl]-N-[(3-piperidin-1-yl-propylcarbamoyl)-methyl]-benzamide]		
		CCCN1C(=O)[C@H](NC(=O)Nc2ccc(N3CCC(N4CCCCC4)CC3)cc2)N=C(c2ccc(C)cc2)c2ccccc21 [N-[4-(,4′-bipiperidin)-1′-ylphenyl]-N′-[(3R)-2,3-dihydro-5-(4-methyl-phenyl)-2-oxo-1-propyl-1H-1,4-benzodiazepin-3-yl]-urea, reference compound]	64.5 nM	13.4 nM
< 20 nM	< 20 nM	O=C(CNC(=O)c1ccc(S(=O)(=O)Nc2cc(F)ccc2Oc2ccc(Br)cc2)cc1)NCC1CCNCC1 [Example 4, 4-[2-(4-Bromo-phenoxy)-5-fluoro-phenylsulfamoyl]-N-{[(piperidin-4-ylmethyl)-carbamoyl]-methyl}-benzamide trifluoroacetate]		
< 20 nM	< 20 nM	O=C(CNC(=O)c1ccc(S(=O)(=O)Nc2ccccc2Oc2ccc(Cl)cc2Cl)cc1)NCCCN1CCOCC1 [Example 27, 4-[2-(2,4-Dichloro-phenoxy)-phenylsulfamoyl]-N-[(3-morpholin-4-yl-propylcarbamoyl)-methyl]-benzamide]		
	< 20 nM	O=C(CNC(=O)c1ccc(S(=O)(=O)Nc2ccccc2Oc2ccc(Cl)cc2Cl)cc1)NCCCCC1CCNCC1 [Example 59, 4-[2-(2,4-Dichloro-phenoxy)-phenylsulfamoyl]-N-[(4-piperidin-4-yl-butylcarbamoyl)-methyl]-benzamide hydrochloride]		
< 20 nM	< 20 nM	O=C(CNC(=O)c1ccc(S(=O)(=O)Nc2ccccc2Oc2ccc(Cl)cc2Cl)cc1)NCCN1CCCC1 [Example 31, 4-[2-(2,4-Dichloro-phenoxy)-phenylsulfamoyl]-N-[(2-pyrrolidin-1-yl-ethylcarbamoyl)-methyl]-benzamide]		
< 20 nM	< 20 nM	O=C(CNC(=O)c1ccc(S(=O)(=O)Nc2ccccc2Oc2ccc(Cl)cc2Cl)cc1)NC1CCC(N2CCCCC2)CC1 (stereo not shown) [Example 62, 4-[2-(2,4-Dichloro-phenoxy)-phenylsulfamoyl]-N-[(4-piperidin-1-yl-cyclohexyl-carbamoyl)-methyl]-benzamide]		
< 20 nM	< 20 nM	CC1CCCCN1CCCNC(=O)CNC(=O)c1ccc(S(=O)(=O)Nc2ccccc2Oc2ccc(Cl)cc2Cl)cc1 (stereo not shown) [Example 28, 4-[2-(2,4-Dichloro-phenoxy)-phenylsulfamoyl]-N-{[3-(2-methyl-piperidin-1-yl)-propylcarbamoyl]-methyl}-benzamide]		
< 20 nM	< 20 nM	CN(C)CCCNC(=O)CNC(=O)c1ccc(S(=O)(=O)Nc2ccccc2Oc2ccccc2)cc1 [Example 54, N-[(3-Dimethylamino-propylcarbamoyl)-methyl]-4-(2-phenoxy-phenylsulfamoyl)-benzamide]		
20 to 100 nM	20 to 100 nM	O=C(CNC(=O)c1ccc(S(=O)(=O)Nc2ccccc2Oc2ccccc2)cc1)NCC1CCNCC1 [Example 5, 4-(2-Phenoxy-phenylsulfamoyl)-N-{[(piperidin-4-ylmethyl)-carbamoyl]-methyl}-benzamide hydrochloride]		
	< 20 nM	CN(CCc1ccncc1)C(=O)CNC(=O)c1ccc(S(=O)(=O)Nc2ccccc2Oc2ccc(Cl)cc2Cl)cc1 [Example 43, 4-[2-(2,4-Dichloro-phenoxy)-phenylsulfamoyl]-N-{[methyl-(2-pyridin-4-yl-ethyl)-carbamoyl]-methyl}-benzamide]		
< 20 nM	< 20 nM	O=C(CNC(=O)c1ccc(S(=O)(=O)Nc2ccccc2Oc2ccc(Cl)cc2Cl)cc1)NC1CCNCC1 [Example 60, 4-[2-(2,4-Dichloro-phenoxy)-phenylsulfamoyl]-N-(piperidin-4-ylcarbamoylmethyl)-benzamide hydrochloride]		
< 20 nM	< 20 nM	O=C(CNC(=O)c1ccc(S(=O)(=O)Nc2ccccc2Oc2ccc(Cl)cc2Cl)cc1)NCCC1CCNCC1 [Example 22, 4-[2-(2,4-Dichloro-phenoxy)-phenylsulfamoyl]-N-[(2-piperidin-4-yl-ethylcarbamoyl)-methyl]-benzamide acetate]		
< 20 nM	< 20 nM	O=C(CNC(=O)c1ccc(S(=O)(=O)Nc2ccccc2Oc2ccccc2)cc1)NC1CCNCC1 [Example 66, 4-(2-Phenoxy-phenylsulfamoyl)-N-(piperidin-4-ylcarbamoylmethyl)-benzamide hydrochloride]		
	< 20 nM	O=C(CNC(=O)c1ccc(S(=O)(=O)Nc2ccccc2Nc2ccccc2)cc1)NCC1CCNCC1 [Example 103, 4-(2-Phenylamino-phenylsulfamoyl)-N-{[(piperidin-4-ylmethyl)-carbamoyl]-methyl}-benzamide hydrochloride]		
< 20 nM	< 20 nM	O=C(NC(Cc1ccccc1)C(=O)NCC1CCNCC1)c1ccc(S(=O)(=O)Nc2ccccc2Oc2ccc(Cl)cc2Cl)cc1 (stereo not shown) [Example 6, 4-[2-(2,4-Dichloro-phenoxy)-phenylsulfamoyl]-N-{2-phenyl-1-[(piperidin-4-ylmethyl)-carbamoyl]-ethyl}-benzamide hydrochloride]		
< 20 nM	< 20 nM	N=C(N)NCc1ccc(CNC(=O)CNC(=O)c2ccc(S(=O)(=O)Nc3ccccc3Oc3ccc(Cl)cc3Cl)cc2)cc1 [Example 39, 4-[2-(2,4-Dichloro-phenoxy)-phenylsulfamoyl]-N-[(4-guanidinomethyl-benzylcarbamoyl)-methyl]-benzamide hydrochloride]		
	< 20 nM	CN(C)CC(C)(C)CNC(=O)CNC(=O)c1ccc(S(=O)(=O)Nc2ccccc2Oc2ccc(Cl)cc2Cl)cc1 [Example 35, 4-[2-(2,4-Dichloro-phenoxy)-phenylsulfamoyl]-N-[(3-dimethylamino-2,2-dimethyl-propylcarbamoyl)-methyl]-benzamide]		
